Each block holds one molecule with its values, some of them ahead of it. No end group written: not given here. *: point of attachment. Palmitoyl = CCCCCCCCCCCCCCCC(=O)*
What was measured:
BRIN-BD11 cells = assay: Insulin release from BRIN-BD11 cells, GIP alone and combined with antidiabetic drugs; assay type: cell-based; conditions: 5.6 mM glucose, 20 minutes; for insulin secretion, combination of agent with GIP compared with either agent alone: 10 nM GIP plus drug; for insulin secretion from BRIN-BD11 cells, agent alone: GIP 10 nM, drugs 25-200 μM
Method: Acute insulin-release studies were carried out using clonal pancreatic BRIN-BD11 cells, whose origin, characteristics and secretory responsiveness have been outlined in detail elsewhere (Irwin, N. et al., 2005, Biol. Chem. (In Press)). BRIN-BD11 cells were seeded into 24-multiwell plates at a density of 10^5 cells per well and allowed to attach overnight at 37° C.

ob/ob mice [1] = assay: Daily N-AcGIP(PEG) for 14 days in 12 weeks old ob/ob mice; assay type: in vivo
Method: FIG. 27 is a pair of line graphs showing the effects of daily N-AcGIP(PEG) administration on food intake and body weight. N-AcGIP(PEG) (25 nmoles/kg/day) or saline vehicle (control) were administered for the 14-day period. Values are mean±SEM for 8 mice.
FIG. 28 is a pair of line graphs showing changes of plasma glucose and insulin after daily treatment of ob/ob mice with N-AcGIP(PEG) (25 nmoles/kg/day) or saline vehicle (control) for 14 days. Values are mean±SEM for 8 mice.
FIG. 29 is a set of line graphs showing the effects of daily N-AcGIP(PEG) administration on glucose tolerance and plasma insulin response to glucose. Tests were conducted after 14 daily injections of either N-AcGIP(PEG) ([…]) or saline vehicle (control). Glucose (18 mmoles/kg) was administered by intraperitoneal injection. Plasma glucose and insulin AUC values for 0-60 min post injection are shown in the right panels. Values are mean±SEM for 8 mice. *p<0.05 compared to control.
FIG. 30 is a line graph and a bar graph showing the effects of daily N-AcGIP(PEG) administration on insulin sensitivity. Tests were conducted after 14 daily injections of either N-AcGIP(PEG) (25 nmoles/kg/day) or saline vehicle (control). Insulin (50 U/kg) was administered by intraperitoneal injection. Plasma glucose AUC values from baseline for 0-60 min post injection are shown in the right panels. Values are mean±SEM for 8 mice. *p<0.05 compared to control.

dipeptidyl peptidase IV [2] = molecular target: dipeptidyl peptidase IV (Sus scrofa, UniProt P22411); assay: DPP IV degradation, % intact peptide by HPLC; assay type: in vitro ADME, porcine; conditions: pig, purified porcine dipeptidyl peptidase IV (DPP IV), 37° C., pH 7.8
Method: (§1) HPLC peak area data were used to calculate the percentage intact peptide remaining at the various time points during the incubation.

[3] = molecular target: purified porcine dipeptidyl peptidase IV (Sus scrofa, UniProt P22411); assay: DPP IV degradation, % intact peptide by HPLC; assay type: in vitro ADME; conditions: 37° C., pH 7.8
Method: as §1

Normal mice = assay: Intraperitoneal glucose tolerance with peptide in younger versus older normal mice; assay type: in vivo; conditions: 25 nmol/kg i.p. with glucose 18 mmol/kg, AUC 0-60 min
Method: Body weight and food intake were recorded over five days before commencement of metabolic tests. Intraperitoneal (i.p.) glucose tolerance (18 mmol/kg body weight) was assessed in non-fasted animals.

ob/ob mice [4] = assay: Acute glucose lowering and insulin release, peptide given i.p. with glucose to 18 hour fasted ob/ob mice; conditions: 25 nmol/kg i.p. with glucose 18 mmol/kg
ob/ob mice [5] = assay: 24 hour plasma glucose and insulin profile after a single dose in non-fasted ob/ob mice; assay type: in vivo; conditions: single 12.5 nmol/kg i.p.
From the text: Dose of 12.5 nmol kg^−1 was chosen to evaluate the longer-term duration of action of a single dose of native or fatty acid derivatised GIP in non-fasted ob/ob mice.

[6] = system: dipeptidyl peptidase IV (DPP IV; EC 3.4.15.5); assay: in the circulation; conditions: cited from earlier work
dipeptidyl peptidase IV [7] = assay: purified porcine dipeptidyl peptidase IV (5 mU) in 50 mM triethanolamine-HCl (pH 7.8); conditions: 37° C., up to 24 hours
[8] = molecular target: purified porcine dipeptidyl peptidase IV (porcine, UniProt P22411 38-766, limits assumed); assay: cell-based or functional assay
[9] = after 14 days, glucose 18 mmol/kg i.p.

Chain of purified porcine dipeptidyl peptidase IV (porcine, UniProt P22411 38-766, limits assumed) (P22411 38-766 limits assumed): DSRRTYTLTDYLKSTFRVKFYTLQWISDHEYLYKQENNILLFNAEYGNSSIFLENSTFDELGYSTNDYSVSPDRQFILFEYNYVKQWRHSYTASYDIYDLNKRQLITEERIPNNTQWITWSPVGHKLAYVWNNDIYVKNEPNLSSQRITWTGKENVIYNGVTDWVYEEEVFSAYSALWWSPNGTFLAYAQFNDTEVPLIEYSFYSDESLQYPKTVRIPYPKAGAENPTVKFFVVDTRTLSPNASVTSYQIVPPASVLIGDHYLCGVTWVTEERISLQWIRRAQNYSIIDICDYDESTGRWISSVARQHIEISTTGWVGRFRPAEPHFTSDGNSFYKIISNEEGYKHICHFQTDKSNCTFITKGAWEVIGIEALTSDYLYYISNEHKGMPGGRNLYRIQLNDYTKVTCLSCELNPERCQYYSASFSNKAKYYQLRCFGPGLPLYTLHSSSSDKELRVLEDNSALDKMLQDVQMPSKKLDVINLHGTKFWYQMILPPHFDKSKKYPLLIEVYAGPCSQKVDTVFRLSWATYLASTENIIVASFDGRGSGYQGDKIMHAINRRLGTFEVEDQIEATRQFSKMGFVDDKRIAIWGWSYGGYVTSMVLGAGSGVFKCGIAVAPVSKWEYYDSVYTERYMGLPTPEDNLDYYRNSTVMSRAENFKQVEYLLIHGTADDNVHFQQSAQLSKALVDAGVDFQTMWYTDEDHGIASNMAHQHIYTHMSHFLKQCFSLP
Chain of dipeptidyl peptidase IV (Sus scrofa, UniProt P22411) (P22411 whole entry): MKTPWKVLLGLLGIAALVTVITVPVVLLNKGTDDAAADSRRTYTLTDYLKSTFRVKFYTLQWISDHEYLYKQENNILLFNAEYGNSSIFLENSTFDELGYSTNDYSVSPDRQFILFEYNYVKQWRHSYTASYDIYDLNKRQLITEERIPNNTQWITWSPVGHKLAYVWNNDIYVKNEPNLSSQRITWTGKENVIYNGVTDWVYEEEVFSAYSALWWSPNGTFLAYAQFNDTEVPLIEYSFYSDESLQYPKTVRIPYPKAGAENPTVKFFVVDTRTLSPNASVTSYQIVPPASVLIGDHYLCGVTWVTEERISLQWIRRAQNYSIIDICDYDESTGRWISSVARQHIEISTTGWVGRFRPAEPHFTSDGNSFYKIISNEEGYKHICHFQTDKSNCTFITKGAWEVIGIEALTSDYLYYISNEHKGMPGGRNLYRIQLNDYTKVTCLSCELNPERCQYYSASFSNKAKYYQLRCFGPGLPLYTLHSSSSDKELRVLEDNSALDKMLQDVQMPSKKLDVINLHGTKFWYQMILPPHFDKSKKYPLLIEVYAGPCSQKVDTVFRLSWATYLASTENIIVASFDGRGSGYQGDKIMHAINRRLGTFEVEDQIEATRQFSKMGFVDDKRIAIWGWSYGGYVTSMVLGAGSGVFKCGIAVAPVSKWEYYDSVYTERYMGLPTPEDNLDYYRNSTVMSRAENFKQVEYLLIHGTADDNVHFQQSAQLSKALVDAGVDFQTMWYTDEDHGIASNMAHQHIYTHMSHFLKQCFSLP
Chain of purified porcine dipeptidyl peptidase IV (Sus scrofa, UniProt P22411) (P22411 whole entry): as above

Molecule: CC(C)[C@H]1CC[C@H](C(=O)N[C@H](Cc2ccccc2)C(=O)O)CC1 [nateglinide]
insulin secretion, combination of agent with GIP compared with either agent alone (BRIN-BD11 cells): significant potentiation
insulin secretion from BRIN-BD11 cells, agent alone (BRIN-BD11 cells): stimulated insulin secretion

Molecule: N-AcGIP(PEG): GIP molecule in which PEG is attached to the C-terminus and the Acetyl group to the opposite end
circulating insulin (ob/ob mice [1]; 25 nmoles/kg/day, 14 days): without appreciable change
effect on body weight (ob/ob mice [1]; 25 nmoles/kg/day, 14 days): did not affect
effect on food intake (ob/ob mice [1]; 25 nmoles/kg/day, 14 days): did not affect
non-fasting glucose (ob/ob mice [1]; 25 nmoles/kg/day, 14 days): decreased
glucose tolerance after intraperitoneal glucose load (ob/ob mice [1]; [9]): improved glucose tolerance
overall glycaemic response after intraperitoneal glucose load (ob/ob mice [1]; [9]): reduced the overall glycaemic response
plasma insulin concentrations and insulin response to intraperitoneal glucose (ob/ob mice [1]; [9]): enhanced
plasma glucose after administration of insulin (insulin sensitivity) (ob/ob mice [1]; after 14 days, insulin 50 U/kg i.p.): lower plasma glucose concentrations

Molecule: CCCCNC(=O)NS(=O)(=O)c1ccc(C)cc1 [tolbutamide]
insulin secretion, combination of agent with GIP compared with either agent alone (BRIN-BD11 cells): significant potentiation
insulin secretion from BRIN-BD11 cells, agent alone (BRIN-BD11 cells): stimulated insulin secretion

Molecule: COc1ccc(Cl)cc1C(=O)NCCc1ccc(S(=O)(=O)NC(=O)NC2CCCCC2)cc1 [glibenclamide]
insulin secretion, combination of agent with GIP compared with either agent alone (BRIN-BD11 cells): significant potentiation
insulin secretion from BRIN-BD11 cells, agent alone (BRIN-BD11 cells): stimulated insulin secretion

Further lines, with some results ahead:

remaining at 2 h, 2 mM (dipeptidyl peptidase IV [2]; 2 h incubation with DPP IV (5 mU), read-out: % Intact peptide remaining after time (h) 2): 52 ± 3%
remaining at 8 h, 2 mM (dipeptidyl peptidase IV [2]; 8 h incubation with DPP IV (5 mU), read-out: % Intact peptide remaining after time (h) 8): 0%
remaining at 24 h, 2 mM (dipeptidyl peptidase IV [2]; 24 h incubation with DPP IV (5 mU), read-out: % Intact peptide remaining after time (h) 24): 0%
% Intact peptide remaining after time (h) 0 ([3]; 0 h incubation with DPP IV (5 mU)): 100%
% Intact peptide remaining after time (h) 2 ([3]; 2 h incubation with DPP IV (5 mU)): 52±3%
% Intact peptide remaining after time (h) 8 ([3]; 8 h incubation with DPP IV (5 mU)): completely degraded
Molecule: CC[C@H](C)[C@H](NC(=O)[C@H](CO)NC(=O)[C@H](Cc1ccc(O)cc1)NC(=O)[C@H](CC(=O)O)NC(=O)[C@H](CO)NC(=O)[C@@H](NC(=O)[C@H](Cc1ccccc1)NC(=O)[C@@H](NC(=O)CNC(=O)[C@H](CCC(=O)O)NC(=O)[C@H](C)NC(=O)[C@@H](N)Cc1ccc(O)cc1)[C@@H](C)O)[C@@H](C)CC)C(=O)N[C@@H](C)C(=O)N[C@@H](CCSC)C(=O)N[C@@H](CC(=O)O)C(=O)N[C@@H](CCCCN)C(=O)N[C@H](C(=O)N[C@@H](Cc1c[nH]cn1)C(=O)N[C@@H](CCC(N)=O)C(=O)N[C@@H](CCC(N)=O)C(=O)N[C@@H](CC(=O)O)C(=O)N[C@@H](Cc1ccccc1)C(=O)N[C@H](C(=O)N[C@@H](CC(N)=O)C(=O)N[C@@H](Cc1c[nH]c2ccccc12)C(=O)N[C@@H](CC(C)C)C(=O)N[C@@H](CC(C)C)C(=O)N[C@@H](C)C(=O)N[C@@H](CCC(N)=O)C(=O)N[C@@H](CCCCN)C(=O)NCC(=O)N[C@@H](CCCCN)C(=O)N[C@@H](CCCCN)C(=O)N[C@@H](CC(N)=O)C(=O)N[C@@H](CC(=O)O)C(=O)N[C@@H](Cc1c[nH]c2ccccc12)C(=O)N[C@@H](CCCCN)C(=O)N[C@@H](Cc1c[nH]cn1)C(=O)N[C@@H](CC(N)=O)C(=O)N[C@H](C(=O)N[C@H](C(=O)N[C@@H](CCC(N)=O)C(=O)O)[C@@H](C)O)[C@@H](C)CC)C(C)C)[C@@H](C)CC [Native GIP, reference compound]
overall plasma glucose response in older mice compared to younger controls (Normal mice): significantly elevated
overall plasma insulin response in older mice compared to younger controls (Normal mice): significantly less
insulin release compared to glucose alone (ob/ob mice [4]): significantly greater
plasma glucose concentrations and AUC (0-60 min) compared to glucose alone (ob/ob mice [4]): neither this nor the overall AUC glucose excursion achieved significance
effect on plasma glucose over 24 hours (ob/ob mice [5]): transient, but not significant effect
insulin secretion from BRIN-BD11 cells, agent alone (BRIN-BD11 cells): stimulated insulin secretion

fragment found (dipeptidyl peptidase IV [7]): GIP(3-42), major, 2 hours
Molecule: yaegtfisdysiamdkihqqdfvnwllaqkgkkndwkhnitq
fragment found [6]: GIP(3-42), major

% Intact peptide remaining after time (h): 0 [8]: 100%
% Intact peptide remaining after time (h): 2 [8]: 100%
% Intact peptide remaining after time (h): 8 [8]: 100%
% Intact peptide remaining after time (h): 24 [8]: 100%
Molecule: YAEGTFISDYSIAMDKIHQQDFVNWLLAQKGKKNDWKHNITQ (C-16 palmitoyl group on the epsilon amino group of Lys 16) [GIP(LysPAL^16)]

% Intact peptide remaining after time (h): 0 [8]: 100%
% Intact peptide remaining after time (h): 2 [8]: 52%
% Intact peptide remaining after time (h): 8 [8]: 0%
% Intact peptide remaining after time (h): 24 [8]: 0%
Molecule: YAEGTFISDYSIAMDKIHQQDFVNWLLAQKGKKNDWKHNITQ [native GIP (glucose-dependent insulinotropic polypeptide; gastric inhibitory polypeptide), GIP(1-42)]

% Intact peptide remaining after time (h): 0 [8]: 100%
% Intact peptide remaining after time (h): 2 [8]: 100%
% Intact peptide remaining after time (h): 8 [8]: 100%
% Intact peptide remaining after time (h): 24 [8]: 100%
Molecule: YAEGTFISDYSIAMDKIHQQDFVNWLLAQKGKKNDWK(Palmitoyl)HNITQ [GIP(LysPAL^37)]
